Laboratory results from article PMC10254306, “Piplartine-Inspired 3,4,5-Trimethoxycinnamates: Trypanocidal, Mechanism of Action, and In Silico Evaluation” (Molecules, 2023).
“And” between values parts separate entries of the source, which are not always exact repeats. Equal values may be shown once.

How the values were obtained:
LLC-MK2 cells = assay: In vitro cytotoxicity, MTT assay; type: cell-based, Rhesus monkey
Description: (§1) The compounds were considered selective for the parasite when SI ≥ 10 [21]. The results are expressed in Table 2.
(§2) For the cytotoxicity analysis, the (3-[4,5-dimethylthiazol-2-yl]-2,5 diphenyl tetrazolium bromide) (MTT) assay was used, in which the LLC-MK2 cells were cultured in Dulbecco’s Modified Eagle Medium (DMEM), then exposed to the piplartine analogues at different concentrations (25–200 μg/mL) and incubated for 24 h at 37 °C. Then MTT was added, and the cells were incubated for 4 h, after which 10% sodium dodecyl sulfate was added. […] To calculate the relative cell viability, cells treated only with sterile phosphate-buffered saline were used as a negative control. The experiments were conducted in triplicates.

[1] = In vitro cytotoxicity, MTT assay; type: cell-based, Rhesus monkey; settings: Rhesus monkey, LLC-MK2 renal epithelial cells; MTT, 24 h; read-out: LLCK-MK2 CC50
Description: as §1, §2

T. cruzi epimastigotes = assay: Mitochondrial transmembrane potential, rhodamine 123 flow cytometry; type: cell-based, Trypanosoma cruzi; settings: 157 and 314 µM, 24 h
Description: In addition, the mitochondrial damage exerted by 11 on the parasite was evaluated through the mitochondrial transmembrane potential assay using the fluorescent dye rhodamine 123 (Rho 123).
Initially, 11 (157 and 314 µM) and epimastigote forms (10^6 cells/mL) were added in 24-well plates. After 24 h, the cells were centrifuged and washed with phosphate-buffered saline. Subsequently, the cells were resuspended in 100 µL of phosphate-buffered saline, and 5 µL of Rho123 solution (10 µg/mL) was added. Thus, the samples were incubated in the dark for 30 min, washed, and resuspended with phosphate-buffered saline (500 µL/tube) for analysis by flow cytometry. Results were evaluated by relative fluorescence intensity, calculated as described above.

[2] = test system: epimastigote forms of T. cruzi; assay: Scanning electron microscopy of morphological changes; type: cell-based, Trypanosoma cruzi; settings: 24 h of treatment, 157 µM
Description: In addition, scanning electron microscopy was used to analyze possible morphological alterations of epimastigote forms treated with compound 11. […] Similar results were obtained by treating epimastigote forms with pentyl p-coumarate.
To evaluate the changes induced by 11 in the ultrastructure of T. cruzi, the epimastigote forms were incubated with them for 24 h. After this period, the samples were centrifuged (5000 rpm; 10 min), the supernatant discarded, and the pellet resuspended in glutaraldehyde solution (2.5%) and incubated for 2 h. The fixed samples were again centrifuged and exposed to increasing concentrations of ethanol (30, 50, 70, 90, and 100%) for dehydration, followed by centrifugation (5000 rpm; 5 min). Finally, the cells were transferred to the surface of circular coverslips (15 mm) and dried in a CO2 oven. The coverslips were covered with a gold layer (20 nm thick) using the QT150 ES-Quorum Metallizer and analyzed in a Quanta 450 FEG-FEI scanning electron microscope to observe changes in the three-dimensional structure of the epimastigote forms of T. cruzi.

[3] = test system: epimastigote forms of T. cruzi; assay: Cell death profile, 7-AAD / annexin V-PE labeling; type: cell-based, Trypanosoma cruzi; settings: 157 and 314 µM, 24 h
Description: Epimastigote forms were used to analyze the cell death profile through labeling with AxPE and 7-AAD. Initially, the cells were divided into four cell populations: viable cells—with a low level of labeling (7AAD−/AxPE−); necrotic cells—labeled with 7-AAD (7AAD+/AxPE−); apoptotic cells—labeled with annexin V-PE (7AAD−/AxPE+); and cells in late apoptosis—doubly labeled (7AAD+/AxPE+).
The cells were treated with 11 for 24 h at concentrations of 157 and 314 µM.
The epimastigote forms of T. cruzi were cultivated at a density of 10^6 cells/mL in the presence of 11 (157 and 314 µM) for 24 h in a stove. Then, the cells were transferred to cytometry tubes, centrifuged at 4000 RPM for 5 min and washed twice with phosphate-buffered saline and binding buffer (pH 7.4; a compound of HEPES solution 10 mM; NaCl 140 mM; and CaCl2 2.5 mm). After the last centrifugation, the pellet was resuspended in 100 µL binding buffer, 5 µL 7-AAD (0.5 mg/mL), and 5 µL Ax/PE. The procedure was performed using a commercial kit (Annexin V PE Apoptosis Detection Kit I, BD Biosciences) and following the manufacturer’s guidelines. After 15 min of incubation in the dark, 400 µL of binding buffer was added to each tube, and the cells were analyzed on the FACSCalibur (BD Biosciences). For each tube, a minimum of 10^4 cells were analyzed to quantify the percentage of unlabeled cells and were either singly or double labeled with 7-AAD and Ax/PE. For this, an argon laser (488 nm) was used to excite the fluorochromes. Ax/PE-labeled cells were read by the FL2 detector (563 to 606 nm, yellow fluorescence), while 7-AAD-labeled cells were read at 615 to 645 nm wavelength (red fluorescence, FL3 detector).

[4] = test system: epimastigote forms of T. cruzi, Y strain; assay: Trypanocidal activity on epimastigote forms (growth inhibition, Neubauer chamber count); type: cell-based, Trypanosoma cruzi
Description: (§3) Initially, the prepared esters were submitted to in vitro tests using the microdilution technique in 96-well plates to evaluate the trypanocidal activity against the epimastigote evolutionary form at different concentrations (200–3.12 μg/mL). Then, the compounds with the best activity were tested against the trypomastigote form of T. cruzi. In both assays, IC50 values were calculated; a compound is considered to have trypanocidal activity when IC50 <40 μM [21]. The results are expressed in Table 1.
Initially, epimastigotes were cultured and distributed in 96-well plates at a density of 10^6 cells/mL in liver infusion tryptose medium supplemented with 10% fetal bovine serum (FBS) and 1% antibiotic. Then, the cells were treated with piplartine analogues at different concentrations and incubated at 28 °C for 24 h. To quantify the growth inhibition of the parasites, a Neubauer chamber was used, and the IC50 was defined.

[5] = test system: epimastigote cells of T. cruzi; assay: Cytoplasmic reactive oxygen species, DCFH-DA flow cytometry; type: cell-based, Trypanosoma cruzi; settings: 157 and 314 µM, 24 h
Description: To elucidate the mechanism of action of 11, the increase in the concentration of ROS inside epimastigote cells of T. cruzi was evaluated through fluorescent techniques using 2′,7′–dichlorofluorescein diacetate (DCFH-DA). The results are illustrated in Figure 2 and Figure 3.
The DCFH-DA assay was used to evaluate the increase in ROS concentration in the cytoplasm of epimastigote cells treated with 11. Initially, 10^6 epimastigote cells/mL were added to 24-well plates in the presence of 11 (157 μM and 314 µM). After 3 h, 10 µL of a solution of DCFH-DA (20 µM in DMSO) was added. After 24 h, the cells were centrifuged (2800 RPM for 7 min), washed, and resuspended in 500 µL of phosphate buffered saline for flow cytometer analysis. Thus, the level of labeling in each group was analyzed by the geometric mean of the fluorescence intensity, and the results were expressed as relative fluorescence intensity according to the following formula (Equation (1)): (1) Relative fluorescence=mTest/mControl mTEST = geometric mean of the interest group; mCONTROL = geometric mean of the control group.

[6] = test system: trypomastigote forms of T. cruzi, Y strain; assay: Trypanocidal activity on trypomastigote forms (viability by counting); type: cell-based, Trypanosoma cruzi
Description: as §3
Trypomastigote forms were obtained by infecting LLC-MK2 cells with the parasite; in this way, the cells were incubated for 24 h in T-25/75 cm^2 flasks at 37 °C in an atmosphere with 5% CO2 in DMEM medium supplemented with 2% FBS and 1% antibiotic. Subsequently, the trypomastigote forms were distributed in 96-well plates treated with piplartine analogues at different concentrations (200; 100; 50; 25; 12.5; 6.25; 3.12 μg/mL) and incubated at 37 °C for 24 h. The assessment of cell viability was performed by counting, and the IC50 was defined.

[7] = test system: trypomastigote forms of T. cruzi; set-up: method as in PMID 31775321; settings: read-out: IC50 trypomastigote form; cited from earlier work
[8] = test system: epimastigote form of T. cruzi; set-up: method as in PMID 31775321; settings: cited from earlier work
[9] = Trypanosoma cruzi, Y strain, 24 h

SMILES | toxicity on LLC-MK2 host cells (in words) (LLC-MK2 cells; highest concentration tested (200 μg/mL)) | selectivity for the parasite (SI) (LLC-MK2 cells; parasite form not specified, conclusions) | CC50 at 24 h [1] | accumulation of rhodamine 123 (mitochondrial transmembrane potential) vs control (T. cruzi epimastigotes) | ultrastructural alterations by scanning electron microscopy [2] | apoptotic cells (7AAD−/AxPE+) vs control [3] | cells in late apoptosis (7AAD+/AxPE+) vs control [3] | percentage of necrotic cells (7AAD+/AxPE−) vs control [3] | percentage of viable cells (7AAD−/AxPE−) vs control [3] | IC50 [4, 9] | Selectivity Index (SI) Epimastigote ([4]; ratio CC50 (LLC-MK2) / IC50 epimastigote) | relative fluorescence DCFH-DA (cytoplasmic ROS) vs control [5] | IC50 [6, 9] | Selectivity Index (SI) Trypomastigote ([6]; ratio CC50 (LLC-MK2) / IC50 trypomastigote) | IC50 [7] [µM] | IC50 [8] [µM]
COc1cc(/C=C/C(=O)OCc2ccco2)cc(OC)c1OC [Compound 11, (E)-furan-2-ylmethyl 3-(3,4,5-trimethoxyphenyl)acrylate] | did not show toxicity at the highest concentration tested | > 10 | > 200 µg/mL and > 628 µM | reduction in the accumulation of rhodamine | pore formation and content leakage in the cytoplasm | increase in apoptotic cells | increase in cells in late apoptosis | increase in the percentage of necrotic cells | reduction in the percentage of viable cells | 8.98 µg/mL and 28.2 µM | >22.2 | increase in relative fluorescence | 15 µg/mL and 47 µM | >13.4 | – | –
CCCCCOC(=O)/C=C/c1ccc(O)cc1 [pentyl p-coumarate] | – | – | – | – | – | – | – | – | – | – | – | – | – | – | 61.6 | 5.16
